Results taken from the supplement of paper PMC13207355.

Tests used:
Settings in all cases: exposure time: 72 h
E13 [1] = patient-derived glioblastoma stem cells of classical subtype; assay: surviving fraction (nuclei count normalised to DMSO); higher = more cells surviving (less toxic)
E21 [2] = patient-derived glioblastoma stem cells of mesenchymal subtype; assay: as above
E28 [3] = patient-derived glioblastoma stem cells of classical subtype; assay: as above
E31 [4] = patient-derived glioblastoma stem cells of proneural subtype; assay: as above
E34 [5] = patient-derived glioblastoma stem cells of proneural subtype; assay: as above
E57 [6] = patient-derived glioblastoma stem cells of mesenchymal subtype; assay: as above
FT3469 [7] = normal neural stem cell line; assay: as above
E13 [8] = assay: phenotypic distance (Euclidean, principal components) from DMSO controls (arbitrary units); higher = stronger morphological change
E21 [9] = assay: as above
E28 [10] = assay: as above
E31 [11] = assay: as above
E34 [12] = assay: as above
E57 [13] = assay: as above
FT3469 [14] = assay: as above
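Wherever phenotypic distance (Euclidean, principal components) from DMSO controls is given: cell Painting imaging in 384-well plates, CellProfiler features reduced to at least 20 principal components, Euclidean distance versus same-plate DMSO vehicle wells (0.1% v/v), median over six images per well.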
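Wherever surviving fraction (nuclei count normalised to DMSO) is given: nuclei counted by high-content imaging of Hoechst-stained cells in laminin-coated 384-well plates, relative to 0.1% DMSO vehicle wells, with staurosporine as cell-death control.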

Cc1ccc(/C=N/NC(=O)c2n[nH]c3c2CCCC3)cc1 [Suprafenacine]
Settings | phenotypic distance | surviving fraction
E13 [1], 4.1 nM | – | 0.909
E13 [1], 12.3 nM | – | 0.853
E13 [1], 37 nM | – | 0.86
E13 [1], 111.1 nM | – | 0.536
E13 [1], 333.3 nM | – | 0.144
E13 [1], 1000 nM | – | 0.235
E13 [1], 3000 nM | – | 0.1
E13 [8], 4.1 nM | 0.782 | –
E13 [8], 12.3 nM | 0.752 | –
E13 [8], 37 nM | 1.13 | –
E13 [8], 111.1 nM | 3.22 | –
E13 [8], 333.3 nM | 7.1 | –
E13 [8], 1000 nM | 7.86 | –
E13 [8], 3000 nM | 5.88 | –
E21 [2], 4.1 nM | – | 0.963
E21 [2], 12.3 nM | – | 0.931
E21 [2], 37 nM | – | 0.982
E21 [2], 111.1 nM | – | 0.453
E21 [2], 333.3 nM | – | 0.0832
E21 [2], 1000 nM | – | 0.113
E21 [2], 3000 nM | – | 0.0664
E21 [9], 4.1 nM | 0.928 | –
E21 [9], 12.3 nM | 0.73 | –
E21 [9], 37 nM | 1.18 | –
E21 [9], 111.1 nM | 4.45 | –
E21 [9], 333.3 nM | 9.28 | –
E21 [9], 1000 nM | 6.44 | –
E21 [9], 3000 nM | 9.19 | –
E28 [3], 4.1 nM | – | 0.954
E28 [3], 12.3 nM | – | 0.896
E28 [3], 37 nM | – | 0.922
E28 [3], 111.1 nM | – | 0.742
E28 [3], 333.3 nM | – | 0.325
E28 [3], 1000 nM | – | 0.31
E28 [3], 3000 nM | – | 0.217
E28 [10], 4.1 nM | 0.615 | –
E28 [10], 12.3 nM | 0.72 | –
E28 [10], 37 nM | 0.724 | –
E28 [10], 111.1 nM | 1.34 | –
E28 [10], 333.3 nM | 3.15 | –
E28 [10], 1000 nM | 4.1 | –
E28 [10], 3000 nM | 5.78 | –
E31 [4], 4.1 nM | – | 0.95
E31 [4], 12.3 nM | – | 0.845
E31 [4], 37 nM | – | 0.709
E31 [4], 111.1 nM | – | 0.454
E31 [4], 333.3 nM | – | 0.0666
E31 [4], 1000 nM | – | 0.0444
E31 [4], 3000 nM | – | 0.0399
E31 [11], 4.1 nM | 0.29 | –
E31 [11], 12.3 nM | 1.07 | –
E31 [11], 37 nM | 1.19 | –
E31 [11], 111.1 nM | 2.14 | –
E31 [11], 333.3 nM | 6.25 | –
E31 [11], 1000 nM | 9.97 | –
E31 [11], 3000 nM | 12.3 | –
E34 [5], 4.1 nM | – | 1.01
E34 [5], 12.3 nM | – | 0.905
E34 [5], 37 nM | – | 0.938
E34 [5], 111.1 nM | – | 0.69
E34 [5], 333.3 nM | – | 0.409
E34 [5], 1000 nM | – | 0.375
E34 [5], 3000 nM | – | 0.237
E34 [12], 4.1 nM | 0.442 | –
E34 [12], 12.3 nM | 1.02 | –
E34 [12], 37 nM | 0.706 | –
E34 [12], 111.1 nM | 1.69 | –
E34 [12], 333.3 nM | 5.34 | –
E34 [12], 1000 nM | 6.45 | –
E34 [12], 3000 nM | 8.8 | –
E57 [6], 4.1 nM | – | 0.914
E57 [6], 12.3 nM | – | 0.922
E57 [6], 37 nM | – | 0.883
E57 [6], 111.1 nM | – | 0.685
E57 [6], 333.3 nM | – | 0.0911
E57 [6], 1000 nM | – | 0.0842
E57 [6], 3000 nM | – | 0.0511
E57 [13], 4.1 nM | 1.71 | –
E57 [13], 12.3 nM | 0.929 | –
E57 [13], 37 nM | 0.819 | –
E57 [13], 111.1 nM | 3.04 | –
E57 [13], 333.3 nM | 5.2 | –
E57 [13], 1000 nM | 5.41 | –
E57 [13], 3000 nM | 6.18 | –
FT3469 [7], 4.1 nM | – | 0.873
FT3469 [7], 12.3 nM | – | 0.804
FT3469 [7], 37 nM | – | 0.848
FT3469 [7], 111.1 nM | – | 0.492
FT3469 [7], 333.3 nM | – | 0.527
FT3469 [7], 1000 nM | – | 0.471
FT3469 [7], 3000 nM | – | 0.295
FT3469 [14], 4.1 nM | 1.07 | –
FT3469 [14], 12.3 nM | 1.84 | –
FT3469 [14], 37 nM | 1.31 | –
FT3469 [14], 111.1 nM | 2.86 | –
FT3469 [14], 333.3 nM | 3.59 | –
FT3469 [14], 1000 nM | 3.7 | –
FT3469 [14], 3000 nM | 6.28 | –
